# Assay results published in patent US4847254A, “CNS affecting 5-oxy-3-aminomethyl-dihydro-benzofurans and benzothiophenes” (H. Lundbeck A/S, priority 1987, dated 1989).
# Columns and labels:
# DA-autoreceptors = experiment: Inhibition of spontaneous locomotor activity (motility inhibition) in rats; format: in vivo, rat (Wistar); conditions: doses calculated as the free amine
# DA-receptor = experiment: Contralateral circling in rats with unilateral 6-hydroxy-DA (6-OHDA) lesions; format: in vivo, rat (Wistar); conditions: 6-OHDA-lesioned rats, doses calculated as the free amine
# Protocol: Furthermore, the potency of the drug to induce contralateral circling behaviour in 6-hydroxy-DA-lesioned rats was determined. The specificity of this receptor resembles that of the […] DA receptors mediating motility inhibition.
# The experiments were made according to published methods, using rats of the Wistar strain.
# Therefore, also the ability of a test compound to induce contralateral circling in rats with unilateral 6-hydroxy-DA lesions was evaluated (loc cit.).
# DA receptors = experiment: DA stimulating properties / effect at pre- and postsynaptic DA receptors (general statement); format: in vivo; conditions: statement in words
# [1] = tested on: postsynaptic DA-receptors; experiment: Reversal of locomotor depression (hypomotility) in reserpine plus alpha-methyl-p-tyrosine pretreated rats; format: in vivo, rat (Wistar)
# [2] = tested on: postsynaptic DA-receptors; conditions: reversal of locomotor depression in DA-depleted rats; statement in words; cited from earlier work
SMILES,Motility Inh. rats (sc) ED50 (DA-autoreceptors) [µmol/kg],6-OHDA Contr. Circle. rats (sc) ED50 (DA-receptor) [µmol/kg],DA stimulating properties (DA receptors),Reserpin α-Mt Rev. rats (sc) ED50 [1] [µmol/kg],effect in reserpine plus alpha-methyl-p-tyrosine model [2]
"CCCN(CCC)CC1CCc2ccccc21 (stereo not shown) [Lu 21-091, N,N-Dipropyl-1-indanmethylamine]",> 62,> 62,without any DA stimulating properties,–,–
"CCCN1CCC[C@@H](c2cccc(O)c2)C1 [(--)-3-PPP, reference compound]",4.2 to 11,0.77,–,> 67,without effect
